How the values were obtained:
HCV replicon = HCV replicon FRET assay (HCV RdRp cell line); format: cell-based; details: Hepatitis C virus, read-out: RdRp Inhibition Range, EC50
Source text: FRET Assay Preparation. To perform the HCV FRET screening assay, 96-well cell culture plates were used. The FRET peptide (Anaspec, Inc.) (Taliani et al., Anal. Biochem. 240:60-67 (1996), expressly incorporated by reference in its entirety) contains a fluorescence donor, EDANS, near one end of the peptide and an acceptor, DABCYL, near the other end. The fluorescence of the peptide is quenched by […] resonance energy transfer (RET) between the donor and the acceptor, but as the NS3 protease cleaves the peptide the products are released from RET quenching and the fluorescence of the donor becomes apparent. […]
FRET Assay and Cytotoxicity Assay. […] After reading in a Cytoflour 4000 instrument (PE Biosystems), plates were rinsed with PBS and then used for FRET assay by the addition of 30 ul of the FRET peptide assay reagent described above (FRET Assay Preparation) per well. The plate was then placed into the Cytoflour 4000 instrument which had been set to 340 excite/490 emission, automatic mode for 20 cycles and the plate read in a kinetic mode. Typically, the signal to noise using an endpoint analysis after the reads was at least three-fold.
Compound analysis was determined by quantification of the relative HCV replicon inhibition and the relative cytotoxicity values. […]

[1] = biological target: T1, HCV NS5B RdRp genotype 1b (Hepatitis C virus genotype 1b, UniProt Q9WMX2); assay: HCV NS5B RdRp enzyme assay; format: biochemical; details: HCV RdRp genotype 1b enzyme; read-out: RdRp Inhibition Range, IC50
T1 construct: The protein was expressed with an 18 amino acid C-terminal truncation to enhance the solubility; made in house; host or cells: E. coli BL21(DE3)
Description: HCV NS5B RdRp cloning, expression, and purification. The cDNA encoding the NS5B protein of HCV, genotype 1b, was cloned into the pET21a expression vector. The protein was expressed with an 18 amino acid C-terminal truncation to enhance the solubility. The E. coli competent cell line BL21(DE3) was used for expression of the protein. Cultures were grown at 37° C. for ˜4 hours until the cultures reached an optical density of 2.0 at 600 nm. The cultures were cooled to 20° C. and induced with 1 mM IPTG. Fresh ampicillin was added to a final concentration of 50 μg/ml and the cells were grown overnight at 20° C.
Cell pellets (3 L) were lysed for purification to yield 15-24 mgs of purified NS5B. The lysis buffer consisted of 20 mM Tris-HCl, pH 7.4, 500 mM NaCl, 0.5% triton X-100, 1 mM DTT, 1 mM EDTA, 20% glycerol, 0.5 mg/ml lysozyme, 10 mM MgCl2, 15 ug/ml deoxyribonuclease I, and Complete TM protease inhibitor tablets (Roche). After addition of the lysis buffer, frozen cell pellets were resuspended using a tissue homogenizer. To reduce the viscosity of the sample, aliquots of the lysate were sonicated on ice using a microtip attached to a Branson sonicator. The sonicated lysate was centrifuged at 100,000×g for 1 hr at 4° C. and filtered through a 0.2 μm filter unit (Corning). […]
HCV NS5B RdRp enzyme assay. […] Plates were read on a Packard Top Count NXT. […]

T1 sequence (Q9WMX2 2420-2992): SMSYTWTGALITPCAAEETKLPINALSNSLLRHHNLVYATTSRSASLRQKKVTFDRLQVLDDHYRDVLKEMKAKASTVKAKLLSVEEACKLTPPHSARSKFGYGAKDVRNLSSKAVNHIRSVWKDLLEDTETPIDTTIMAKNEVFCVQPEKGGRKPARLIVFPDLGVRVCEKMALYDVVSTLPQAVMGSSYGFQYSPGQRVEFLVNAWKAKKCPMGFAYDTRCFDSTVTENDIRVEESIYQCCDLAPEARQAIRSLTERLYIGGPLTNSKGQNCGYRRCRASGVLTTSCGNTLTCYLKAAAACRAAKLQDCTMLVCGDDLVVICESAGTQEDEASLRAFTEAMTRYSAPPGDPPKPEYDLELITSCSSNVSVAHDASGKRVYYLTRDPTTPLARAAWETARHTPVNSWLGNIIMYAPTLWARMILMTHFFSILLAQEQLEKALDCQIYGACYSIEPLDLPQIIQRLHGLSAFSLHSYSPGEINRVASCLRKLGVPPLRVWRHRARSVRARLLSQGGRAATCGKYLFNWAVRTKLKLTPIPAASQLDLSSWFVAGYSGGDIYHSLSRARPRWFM

Row | Structure (SMILES) | EC50 (HCV replicon) | IC50 [1]
1 | Cn1c(-c2ccoc2)c(C2CCCCC2)c2ccc(C(=O)Nc3nnn[nH]3)cc21 [Compound 1] | < 5 µM | 100 to 1000 nM
2 | Cn1c(-c2ccoc2)c(C2CCCCC2)c2ccc(-c3nnn[nH]3)cc21 [Compound 2] | 5 to 10 µM | 100 to 1000 nM
